Consider 29 molecules from patent US8088918B2, “Noncardiotoxic pharmaceutical compounds” (Williamsburg Holdings LLC, priority 2004, dated 2012).

SMILES strings stand for the structures.

The conditions of data set [1]: parent drugs; cited from earlier work.
A short description of data set [2]: Stability testing in simulated intestinal fluids. The conditions noted are these: 10 μM.
Data set [3] is described as follows: Stability testing of prodrugs in human plasma. Format: in vitro ADME. To be noted: 10 μM, ca. 37° C. The procedure: Pooled human plasma was obtained from Bioreclamation (East Meadow, N.Y.) by collection into sodium EDTA as the anticoagulant, and was stored at ca −20° C. prior to use. Prior to use, the plasma defrosted and was spun at ca. 3000 rpm for 5 minutes to remove any precipitate. The pH of the plasma was adjusted to pH 7.4 by careful addition of NaH2PO4 buffer.
Plasma stability was assessed by incubation of 10 μM of each compound prepared in Examples 1-5 with human plasma, in duplicate, at ca. 37° C. with shaking. Each compound prepared in Examples 1-5 was also incubated at 10 μM in PBS as a control for compound heat stability. Aliquots were removed at 0, 0.5, 1 and 2 hours and stored at −20° C. until analysis.
For analysis, plasma samples were extracted in 1 part acetonitrile and isolation of the supernatant. Analysis of each compound prepared in Examples 1-5 in plasma extracts was conducted by an LC-MS method at each time interval and quantification was achieved by comparison of the response due to the sample to that of a three point standard curve. Appearance of the parent drug the hydroxymetabolites were also monitored at each time interval. The % degradation following incubation at each time point was calculated by comparison of the parent concentration to that at 0 minutes.

For a further data set, the target named is CYP2D6 (Homo sapiens, UniProt P10635). As to the kind of experiment: Metabolic stability in the presence of CYP2D6 isozyme. The format is in vitro ADME. The arrangement: purchased BD Gentest (Woburn, Mass.). The conditions noted are these: 10 μm compound. The method, then: (§1) The metabolic stability of each compound prepared in Examples 1-5 was assessed in the presence of CYP2D6 and CYP3A4 obtained from BD Gentest (Woburn, Mass.).
(§2) The metabolic stability of each compound prepared in Examples 1-5 was assessed in duplicate by incubation of 10 μm compound with recombinant human CYP2D6 and 3A4 using similar conditions to those in Example 9. Samples were removed for analysis at 0, 30 and 60 minutes and extracted with one volume of organic solvent. Appropriate controls were included. Quantification of the disappearance of the prodrug was conducted LC-MS. Appearance of metabolites was also monitored.

The nature of data set [4]: Metabolic stability, microsomal incubations with ketoconazole (CYP3A4 inhibitor). The format is in vitro ADME. To be noted: 10 μM, 0.5 mg/mL microsomal protein. The method, then: (§3) The metabolic stability of each compound prepared in Examples 1-5 was assessed in microsomal preparations obtained from BD Gentest (Woburn, Mass.).
(§4) The metabolic stability of each compound prepared in Examples 1-5 was assessed in duplicate by incubation of 10 μM compound with 0.5 mg/mL microsomal protein, 1 mM in 0.1 M phosphate buffer, pH 7.4 in the presence and absence of a CYP3A4 inhibitor (ketoconazole). The reaction mixture was pre-incubated, in the absence of the microsomes, at ca. 37° C. for 5 minutes, followed by initiation of the incubation by the addition of microsomal protein and maintained at ca. 37° C. for a further 0, 30 and 60 minutes. After the appropriate incubation time, the mixtures were quenched by the addition of one volume of acetonitrile and the supernatant was isolated by centrifugation. Positive control incubations (7-ethoxycoumarin) were performed in the same manner as the compounds from Examples 1-5 and quenched after 0 and 30 minutes. In addition, negative control incubations were performed for 60 minutes in the absence of NADPH to assess chemical stability.
(§5) Analysis of supernatants from each time interval was conducted for each compound prepared in Examples 1-5 by LC-MS analysis. Quantification of the disappearance on the parent drug was achieved by comparison of the sample response to that of a suitable standard curve constructed in 0.1 M phosphate buffer, pH 7.4. The standard curve ranged between ≦1% up to ≧100% of the dosing concentration.
(§6) The % turnover following 60 minutes of incubation was calculated by comparison of the parent concentration to that at 0 minutes. The % degradation was calculated in the same manner from the negative control incubations. Appearance of the parent drug and the hydroxymetabolites were also monitored at each time interval.

The nature of data set [5]: Stability testing of prodrugs in rat plasma (elevated esterase activity). The format is in vitro ADME, Sprague-Dawley rat. To be noted: 10 μM, ca. 37° C. The procedure:
Sprague-Dawley rat plasma was obtained by collection into sodium EDTA as the anticoagulant, and was stored at ca −20° C. prior to use. Prior to use, the plasma defrosted and was spun at ca. 3000 rpm for 5 minutes to remove any precipitate. The pH of the plasma was adjusted to pH 7.4 by careful addition of NaH2PO4 buffer.
Plasma stability was assessed by incubation of 10 μM of each compound prepared in Examples 1-5 with rat plasma, in duplicate, at ca. 37° C. with shaking. Each compound prepared in Examples 1-5 was also incubated at 10 μM in PBS as a control for compound heat stability. Aliquots were removed at 0, 0.5, 1 and 2 hours and stored at −20° C. until analysis.
For analysis, plasma samples were extracted in 1 part acetonitrile and isolation of the supernatant. Analysis of each compound prepared in Examples 1-5 in plasma extracts was conducted by an LC-MS method at each time interval and quantification was achieved by comparison of the response due to the sample to that of a three point standard curve. Appearance of the parent drug and the hydroxymetabolites were also monitored at each time interval. The % degradation following incubation at each time point was calculated by comparison of the parent concentration to that at 0 minutes.

Data set [6] can be described thus: Metabolic stability, microsomal incubations without inhibitor. The conditions noted are these: 10 μM, 0.5 mg/mL microsomal protein. Format: in vitro ADME. The method, then: as §3, §4, §5, §6
Data set [7] in a line: Stability testing in simulated gastric fluids. To be noted: 10 μM, saline pH approximately 1 plus pepsin.
The target of a further data set is T1, recombinant human CYP3A4 (Homo sapiens, UniProt P08684).
T1 construct: purchased BD Gentest (Woburn, Mass.)
Kind of data set: Metabolic stability in the presence of CYP3A4 isozyme. To be noted: 10 μm compound. Format: in vitro ADME. The method, then: as §1, §2

Sequence of CYP2D6 (P10635 whole entry): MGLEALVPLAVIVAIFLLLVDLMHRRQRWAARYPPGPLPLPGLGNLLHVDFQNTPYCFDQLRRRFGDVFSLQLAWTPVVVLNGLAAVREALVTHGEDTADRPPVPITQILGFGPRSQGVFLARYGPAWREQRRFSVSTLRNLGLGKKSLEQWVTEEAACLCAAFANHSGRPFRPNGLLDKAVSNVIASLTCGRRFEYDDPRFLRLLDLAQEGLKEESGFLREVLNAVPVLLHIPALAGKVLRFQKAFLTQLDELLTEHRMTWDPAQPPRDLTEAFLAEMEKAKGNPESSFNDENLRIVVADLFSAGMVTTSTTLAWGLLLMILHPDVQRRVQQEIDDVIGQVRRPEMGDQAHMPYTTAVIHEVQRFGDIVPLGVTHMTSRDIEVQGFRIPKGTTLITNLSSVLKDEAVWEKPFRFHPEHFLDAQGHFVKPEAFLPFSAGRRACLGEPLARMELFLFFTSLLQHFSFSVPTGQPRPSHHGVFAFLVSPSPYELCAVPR
T1 sequence (P08684 whole entry): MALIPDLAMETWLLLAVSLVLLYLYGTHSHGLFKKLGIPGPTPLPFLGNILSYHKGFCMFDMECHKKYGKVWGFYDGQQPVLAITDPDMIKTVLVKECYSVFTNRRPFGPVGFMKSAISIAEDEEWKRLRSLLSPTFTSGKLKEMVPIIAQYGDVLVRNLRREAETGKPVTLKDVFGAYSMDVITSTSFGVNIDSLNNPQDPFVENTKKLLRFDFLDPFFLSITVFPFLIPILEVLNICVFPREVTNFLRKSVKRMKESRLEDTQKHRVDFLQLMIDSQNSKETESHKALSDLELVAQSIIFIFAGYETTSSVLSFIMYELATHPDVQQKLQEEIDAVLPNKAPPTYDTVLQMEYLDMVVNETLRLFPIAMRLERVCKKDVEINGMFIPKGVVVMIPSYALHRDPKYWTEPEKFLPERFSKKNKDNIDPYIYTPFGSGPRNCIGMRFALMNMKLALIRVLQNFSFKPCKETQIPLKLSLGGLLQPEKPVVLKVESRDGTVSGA

On to `COc1ccc(OCC2CN(C)CCC2c2ccccc2)cc1` (stereo not drawn) [femoxetine, Femoxetine], for which the pKa in data set [1] is reported as 9.00. For `Cc1cccc(CN2CCN(C(c3ccccc3)c3ccc(Cl)cc3)CC2)c1` (stereo not drawn) [meclizine], in data set [1], the pKa is given as 7.32. `CN1CCC[C@@H]1Cc1c[nH]c2ccc(CCS(=O)(=O)c3ccccc3)cc12` [eletriptan, Eletriptan]: the pKa in data set [1] was 10.13. For `CN[C@@H]1CCc2[nH]c3ccc(C(N)=O)cc3c2C1` [frovatriptan, Frovatriptan], in data set [1], the pKa is listed as 10.63. Consider `CN(C)CCC=C1c2ccccc2C=Cc2ccccc21` [cyclobenzaprine, Cyclobenzaprine], for which the pKa in data set [1] is listed as 9.21. As for `COc1cc(N)c(Cl)cc1C(=O)NC1CCNCC1OC` (stereo not drawn) [norcisapride], the pKa in data set [1] is given as 8.46. On to `CNCCCC12CCC(c3ccccc31)c1ccccc12` [maprotiline], for which the pKa in data set [1] is given as 10.20. For `CC(C)(C)c1ccc(C(O)CCCN2CCC(C(O)(c3ccccc3)c3ccccc3)CC2)cc1` (stereo not drawn) [terfenadine, Terfenadine], the pKa in [1] is listed as 9.60.

Consider `CCc1nn(CCCN2CCN(c3cccc(Cl)c3)CC2)c(=O)n1CCOc1ccccc1` [nefazodone], for which, in data set [1], the pKa is recorded as 7.90. Consider `CN(C)CCC[C@@]1(c2ccc(F)cc2)OCc2cc(C#N)ccc21` [escitalopram, Escitalopram], for which the pKa in [1] is 9.60. Consider `CN(C)CCOC(C)(c1ccccc1)c1ccc(Cl)cc1` (stereo not drawn) [chlorphenoxamine, Chlorphenoxamine], for which the pKa in data set [1] is 8.21.

As to `O=C1Cc2cc(CCN3CCN(c4nsc5ccccc45)CC3)c(Cl)cc2N1` [ziprasidone], in [1], the pKa is on record as 8.24. As to `CCOP(=O)(OCC)N(C)CCCN1c2ccccc2CCc2ccccc21` [RIC-02, [3-(10,11-Dihydro-dibenzo[b,f]azepin-5-yl)-propyl]-methyl-phosphoramidic acid diethyl ester], the “Loss of parent compound in simulated intestinal fluid (%)” value in [2] (phosphate pH 6, incubation time 0 min) is 0.00%; in [2] (phosphate pH 6, incubation time 30 min), 11.65%; in data set [2] (phosphate pH 6, incubation time 60 min), 7.83%; in data set [2] (phosphate pH 6, incubation time 120 min), 9.29%. Further, the “Loss of parent compound in human plasma (%)” value in [3] (incubation time 0 min) is 0.00%; in data set [3] (incubation time 30 min), “−.43%”; in data set [3] (incubation time 60 min), 9.94%; in data set [3] (incubation time 120 min), 7.93%. The entries for the “Loss of parent compound with CYP2D6 isozyme (%)” value at CYP2D6 (incubation time 0 min), on CYP2D6 (incubation time 30 min) and at CYP2D6 (incubation time 60 min) were 0.00%, 13.19% and 37.11%, respectively. The entries for the “Loss of parent compound with ketoconazole (%)” value in data set [4] (incubation time 30 min) and in data set [4] (incubation time 60 min) were −17.26% and 11.04%, respectively. Besides, the “Loss of parent compound in rat plasma (%)” value in [5] (incubation time 0 min) was 0.00%; in data set [5] (incubation time 30 min), 4.67%; in data set [5] (incubation time 60 min), 11.01%; in data set [5] (incubation time 120 min) it was 9.02%. In addition, the “Loss of parent compound with no ketoconazole (%)” value in [6] (incubation time 30 min) came to 76.17%; in [6] (incubation time 60 min), 91.40%. The “Loss of parent compound in simulated gastric fluid (%)” value is 0.00% in data set [7] (incubation time 0 min), 49.94% in [7] (incubation time 30 min), 74.67% in data set [7] (incubation time 60 min) and 93.12% in data set [7] (incubation time 120 min). In addition, the “Loss of parent compound with CYP3A4 isozyme (%)” value at recombinant human CYP3A4 (incubation time 0 min) is on record as 0.00%; on recombinant human CYP3A4 (incubation time 30 min), 97.05%; at recombinant human CYP3A4 (incubation time 60 min), 98.62%. Turning to `CN(C)CCC=C1c2ccccc2COc2ccccc21` (mixture of isomers) [doxepin, Doxepin], the pKa in [1] is listed as 8.00. In the case of `CN(C)CCc1c[nH]c2ccc(C[C@H]3COC(=O)N3)cc12` [Zolmitriptan], the pKa in data set [1] is 9.52. Turning to `CN1CCC[C@@H]1CCO[C@](C)(c1ccccc1)c1ccc(Cl)cc1` [clemastine], the pKa in data set [1] was 10.23. On to `O=C1NCCN1CCN1CCC(c2cn(-c3ccc(F)cc3)c3ccc(Cl)cc23)CC1` [sertindole, Sertindole], for which the pKa in [1] is 9.06. In the case of `CNCCC(Oc1ccccc1C)c1ccccc1` (stereo not drawn) [atomoxetine, Atomoxetine], the pKa in data set [1] is 10.12. Turning to `CN(C)CCCN1c2ccccc2CCc2ccc(Cl)cc21` [clomipramine], in data set [1], the pKa was 9.50.

Turning to `CC(N)C12CC3CC(CC(C3)C1)C2` (stereo not drawn) [rimantadine], the pKa in data set [1] is 11.70. Regarding `COc1cc(N)c(Cl)cc1C(=O)NC1CCN(CCCOc2ccc(F)cc2)CC1OC` (stereo not drawn) [cisapride, Cisapride], the pKa in [1] was 7.04.

Turning to `O=C1NC(=O)C(c2ccccc2)(c2ccccc2)N1` [phenytoin], the pKa in data set [1] was 8.31.

Consider `CN1CCN(C2=Nc3cc(Cl)ccc3Nc3ccccc32)CC1` [clozapine, Clozapine], for which the pKa in data set [1] was 8.20. Turning to `CN(C)CCc1c[nH]c2ccc(Cn3cncn3)cc12` [rizatriptan], the pKa in data set [1] was 9.49. For `CC1COc2c(N3CCN(C)CC3)c(F)cc3c(=O)c(C(=O)O)cn1c23` (stereo not drawn) [ofloxacin], the pKa in [1] is 7.09. For `CN1CCN(C(c2ccccc2)c2ccccc2)CC1` [cyclizine], in [1], the pKa was 8.35. As to `COc1c(N2C[C@@H]3CCCN[C@@H]3C2)c(F)cc2c(=O)c(C(=O)O)cn(C3CC3)c12` [moxifloxacin], the pKa in data set [1] is 10.01.

Regarding `Fc1ccc(-n2cc(C3CCNCC3)c3cc(Cl)ccc32)cc1` [norsertindole], the pKa in [1] is reported as 10.61.

On to `CN1CCN(CCCN2c3ccccc3Sc3ccc(C(F)(F)F)cc32)CC1` [trifluoperazine], for which the pKa in data set [1] was 7.98.

What is called pKa is the negative logarithm of the acid dissociation constant.
